According to the supplement of paper PMC10307832:

Experiments:
Assay in all cases: relative viability (nuclei count vs DMSO), 5 days (fraction); higher = more cells survive
BAM7 + Dasatinib = compound: CCOC1=CC=CC=C1N=NC2=C(NN(C2=O)C3=NC(=CS3)C4=CC=CC=C4)C [BAM7] + Cc1nc(Nc2ncc(C(=O)Nc3c(C)cccc3Cl)s2)cc(N2CCN(CCO)CC2)n1 [Dasatinib] (partner 0.075 µM)
Procedure, shortened: (§1)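 Lung cancer cell lines were seeded in 1536-well plates and dosed by pin tool the next day, with either a single drug or a fixed anchor-drug dose combined with five library-drug doses (not always all listed) spaced in √10 steps. Five days later, one step fixed the cells and stained their nuclei (final 0.05% Triton X-100, 1% formaldehyde, 1 ug/ml Hoechst), and nuclei were counted on 4× images. Relative viability is the nuclei count in treated wells divided by the count in vehicle wells, and each value is the median of duplicate plates.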

[1] = compound: CCn1c(-c2nonc2N)nc2c(C#CC(C)(C)O)ncc(OC[C@H]3CCCNC3)c21 + O=C(CCCCCCC(=O)Nc1ccccc1)NO [Vorinostat] (partner 1 µM)
Procedure, shortened: as §1

[2] = compound: CCn1c(-c2nonc2N)nc2c(C#CC(C)(C)O)ncc(OC[C@H]3CCCNC3)c21 + COc1cccc2cc(-c3nc([C@H]4CC[C@H](C(=O)O)CC4)n4ncnc(N)c34)[nH]c12 [OSI-027] (partner 0.5 µM)
Procedure, shortened: as §1

[3] = compound: CCn1c(-c2nonc2N)nc2c(C#CC(C)(C)O)ncc(OC[C@H]3CCCNC3)c21 + Cc1nc(NC(=O)N2CCC[C@H]2C(N)=O)sc1-c1ccnc(C(C)(C)C(F)(F)F)c1 [Alpelisib] (partner 2 µM)
Procedure, shortened: as §1

Cell Line | relative viability (BAM7 + Dasatinib; first compound 0.5 µM) | relative viability (BAM7 + Dasatinib; first compound 5 µM) | relative viability (BAM7 + Dasatinib; first compound 15.81 µM) | relative viability (BAM7 + Dasatinib; first compound 50 µM) | relative viability ([1]; first compound 0.01 µM) | relative viability ([1]; first compound 0.03162 µM) | relative viability ([1]; first compound 0.1 µM) | relative viability ([1]; first compound 0.3162 µM) | relative viability ([1]; first compound 1 µM) | relative viability ([2]; first compound 0.01 µM) | relative viability ([2]; first compound 0.03162 µM) | relative viability ([2]; first compound 0.1 µM) | relative viability ([2]; first compound 0.3162 µM) | relative viability ([2]; first compound 1 µM) | relative viability ([3]; first compound 0.01 µM) | relative viability ([3]; first compound 0.03162 µM) | relative viability ([3]; first compound 0.1 µM) | relative viability ([3]; first compound 0.3162 µM) | relative viability ([3]; first compound 1 µM)
NCI-H522 | 0.872 | 0.976 | 0.828 | 0.827 | 0.944 | 0.911 | 0.853 | 0.847 | 0.938 | 0.673 | 0.691 | 0.741 | 0.634 | 0.748 |  |  |  |  | 
HCC-15 | 0.594 | 0.574 | 0.617 | 0.565 | 0.97 | 0.858 | 0.894 | 0.769 | 0.881 | 0.576 | 0.602 | 0.626 | 0.575 | 0.595 | 0.868 | 0.945 | 0.86 | 0.832 | 0.946
A-427 | 0.845 | 0.71 | 0.664 | 0.826 | 0.857 | 0.858 | 0.844 | 0.783 | 0.889 | 0.413 | 0.578 | 0.367 | 0.509 | 0.443 | 0.998 | 1.11 | 1.05 | 0.997 | 1.14
NCI-H2228 | 0.598 | 0.639 | 0.509 | 0.521 | 0.539 | 0.828 | 0.409 | 0.7 | 0.497 | 0.628 | 0.559 | 0.446 | 0.421 | 0.279 | 0.68 | 0.854 | 0.622 | 0.651 | 0.569
NCI-H1734 | 0.503 | 0.59 | 0.491 | 0.53 | 0.773 | 0.857 | 0.744 | 0.7 | 0.74 | 0.574 | 0.632 | 0.538 | 0.478 | 0.382 | 0.652 | 0.624 | 0.631 | 0.655 | 0.658
PC-14 | 0.229 | 0.211 | 0.228 | 0.295 | 0.68 | 0.742 | 0.722 | 0.556 | 0.461 | 0.706 | 0.968 | 0.797 | 0.499 | 0.613 | 0.945 | 0.909 | 1 | 0.888 | 0.865
NCI-H1915 | 0.321 | 0.327 | 0.279 | 0.303 | 0.57 | 0.526 | 0.474 | 0.513 | 0.5 | 0.625 | 0.648 | 0.573 | 0.629 | 0.652 | 1.06 | 1.06 | 1.02 | 1.04 | 1.08
NCI-H1666 | 0.847 | 0.832 | 0.755 | 0.876 | 1.02 | 1.07 | 0.986 | 1 | 0.942 | 0.776 | 0.777 | 0.835 | 0.693 | 0.722 | 0.874 | 1.1 | 0.992 | 0.792 | 0.831
